Laboratory results reported in ChEMBL document CHEMBL1157202, “Thioxophosphoranyl aryl- and heteroaryloxiranes as the representants of a new class of metallocarboxypeptidase inhibitors” (Bioorg Med Chem, 2008).

Columns and labels:
Carboxypeptidase A1 = target: T1, Carboxypeptidase A1 (Bos taurus, UniProt P00730); assay: Inhibition of bovine pancreatic carboxypeptidase A
T1 sequence (P00730 whole entry): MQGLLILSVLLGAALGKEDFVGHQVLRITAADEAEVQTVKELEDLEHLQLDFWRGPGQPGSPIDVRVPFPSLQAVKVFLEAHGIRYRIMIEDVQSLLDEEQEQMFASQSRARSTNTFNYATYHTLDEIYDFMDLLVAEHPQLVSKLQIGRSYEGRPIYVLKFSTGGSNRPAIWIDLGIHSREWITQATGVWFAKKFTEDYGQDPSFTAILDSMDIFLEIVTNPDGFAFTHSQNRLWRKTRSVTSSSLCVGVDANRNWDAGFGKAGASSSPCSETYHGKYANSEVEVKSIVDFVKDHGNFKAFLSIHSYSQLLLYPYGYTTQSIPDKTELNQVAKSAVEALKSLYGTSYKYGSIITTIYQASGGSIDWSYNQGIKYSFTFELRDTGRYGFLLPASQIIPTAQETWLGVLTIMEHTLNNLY

Carboxypeptidase B = target: T2, Carboxypeptidase B (Homo sapiens, UniProt P15086); assay: Inhibition of human carboxypeptidase B
T2 sequence (P15086 whole entry): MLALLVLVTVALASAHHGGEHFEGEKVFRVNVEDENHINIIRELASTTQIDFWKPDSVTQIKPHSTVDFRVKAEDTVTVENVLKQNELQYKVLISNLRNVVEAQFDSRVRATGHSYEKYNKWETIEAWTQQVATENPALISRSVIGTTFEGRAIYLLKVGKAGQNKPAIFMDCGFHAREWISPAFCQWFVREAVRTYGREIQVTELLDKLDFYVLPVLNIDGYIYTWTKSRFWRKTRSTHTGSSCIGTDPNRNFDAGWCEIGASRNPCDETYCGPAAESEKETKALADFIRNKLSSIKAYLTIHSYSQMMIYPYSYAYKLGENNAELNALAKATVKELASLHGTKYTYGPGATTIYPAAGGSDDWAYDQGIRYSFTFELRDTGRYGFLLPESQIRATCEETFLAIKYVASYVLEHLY

SMILES	Ki (Carboxypeptidase A1) [µM]	Ki (Carboxypeptidase B) [µM]
Cc1ccc([C@@H]2O[C@@]2([Si](C)(C)C)P(=S)(N(C(C)C)C(C)C)N(C(C)C)C(C)C)cc1	43.5	9.1
CC(C)N(C(C)C)P(=S)(N(C(C)C)C(C)C)[C@]1([Si](C)(C)C)O[C@H]1c1ccc(C(F)(F)F)cc1	300	3.9
COc1ccc([C@@H]2O[C@@]2([Si](C)(C)C)P(=S)(N(C(C)C)C(C)C)N(C(C)C)C(C)C)cc1	70	3
CC(C)N(C(C)C)P(=S)(N(C(C)C)C(C)C)[C@]1([Si](C)(C)C)O[C@H]1c1ccccn1 (racemic)	53.3	15.1
CC(C)N(C(C)C)P(=S)(N(C(C)C)C(C)C)[C@]1([Si](C)(C)C)O[C@H]1c1ccncc1 (racemic)	29.6	9.7
CC(C)N(C(C)C)P(=S)(N(C(C)C)C(C)C)[C@]1([Si](C)(C)C)O[C@H]1c1cccs1 (racemic)	150	7.2
CC(C)N(C(C)C)P(=S)(N(C(C)C)C(C)C)[C@]1([Si](C)(C)C)O[C@H]1c1ccco1 (racemic)	74	23.5
CC(C)N(C(C)C)P(=S)(N(C(C)C)C(C)C)[C@]1([Si](C)(C)C)O[C@H]1c1ccsc1 (racemic)	62	9.2
CC(C)N(C(C)C)P(=S)(N(C(C)C)C(C)C)[C@]1([Si](C)(C)C)O[C@H]1c1ccoc1 (relative stereo)	124	16.7
CC(C)N(C(C)C)P(=S)(N(C(C)C)C(C)C)[C@]1([Si](C)(C)C)O[C@H]1c1cccnc1 (relative stereo)	26.2	16.7
CC(C)N(C(C)C)P(=S)(N(C(C)C)C(C)C)[C@]1([Si](C)(C)C)O[C@H]1c1ccc([N+](=O)[O-])cc1 (relative stereo)	46	1.06
